From ChEMBL document CHEMBL5604065, “ASAP - DENV-3 NS2B-NS3 protease fluorescence dose response” (2024)
Several values for one entry are separate records, joined by “and”; a condition that tells them apart may be missing. Equal values may be shown once.

Target: T1, NS3 protease (dengue virus type 3, UniProt A0A0B5JFF1)
T1 sequence (A0A0B5JFF1 whole entry): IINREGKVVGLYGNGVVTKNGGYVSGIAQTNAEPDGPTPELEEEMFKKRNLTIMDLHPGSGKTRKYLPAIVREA
Assay: Functional biochemical assay to identify treatments for viral infectious disease that targets Dengue virus type 3 NS2B-NS3 protease. Utilizing a direct enzyme activity measurement method, reading the fluorescence intensity is used to characterize the relative potency of inhibitors as IC50.
Design: species or system Philippines/H87/1956

SMILES | IC50
N#Cc1cccc(-c2nc3c(C(=O)Nc4ccc5c(c4)CNC5)cc(F)cc3[nH]2)c1 | 2.31 µM
O=C(Nc1ccc2c(c1)CNC2)c1cccc(-c2cnco2)c1 | 21.2 µM
Cc1c(C(=O)Nc2cc(-c3cccnc3)ccn2)cc(C2CC2)n1C | 6.22 µM
Cn1cc2cc(Cl)cc(C(=O)Nc3ccc4c(c3)CNC4)c2n1 | > 99.5 µM
O=C(Nc1ccc2c(c1)CNC2)c1cc(Cl)cc2cc[nH]c12 | 87.9 µM
Cn1cc(CNC(=O)[C@H](Nc2ccc3c(c2)CNC3)c2cc(Cl)cc(C3CC3)c2)cn1 | 81.8 µM
O=C(Nc1cc(Cl)cc(C(=O)Nc2ccc3c(c2)CCNC3)c1)OCc1ccccc1 | 24.4 µM
COc1cc(-c2cc(NC(=O)c3cc(F)cc4[nH]ncc34)cc3c2CNC3)ccn1 | 12.9 µM
O=C(Nc1ccc2c(c1)CNC2)c1cccc2c(C3CNC3)n[nH]c12 | 9.27 µM
CNC(=O)[C@H](Nc1cc(CN)cc(C(=O)O)c1)c1cc(Cl)cc(C2CC2)c1 | > 99.5 µM
N=C(N)NCCC[C@H](NC(=O)[C@H](Cc1ccc(CN)cc1)NC(=O)c1ccccc1)B(O)O | 0.819 µM and 0.784 µM and 0.98 µM
CC(C)(C)c1cc(Br)cc(C(=O)Nc2ccc3c(c2)CNC3)c1 | > 99.5 µM
O=C(Nc1ccc2c(c1)CNC2)c1cc(Cl)cc(C(F)(F)F)n1 | 10.4 µM
CN1Cc2ccc(NC(=O)c3cc(Cl)cc4[nH]ncc34)cc2C1 | 92.8 µM
O=C(NC1CCOCC1)[C@H](Nc1ccc2c(c1)CNC2)c1cc(Cl)cc2[nH]ncc12 | 39.5 µM
CC(C)(c1nc2c(C(=O)Nc3ccc4c(c3)CNC4)cc(F)cc2[nH]1)S(C)(=O)=O | 13.6 µM
Cc1c(C(=O)Nc2cc(CCCN)ccn2)cc(C2CC2)n1C | 34.5 µM
O=C(Nc1ccc2c(c1)CNC2)c1cc(Cl)cc2[nH]ncc12 | 13.4 µM
NCc1cccc(NC(=O)c2cc(Cl)cc(NC(=O)OCc3ccccc3)c2)c1 | 26.8 µM
O=C(NCCC1CC1)[C@H](Nc1ccc2c(c1)CNC2)c1cc(Cl)cc(C2CC2)c1 | > 99.5 µM
O=C(Nc1ccc2c(c1)CNC2)c1cccc2nc(O)ccc12 | > 99.5 µM
O=C(Nc1ccc2c(c1)CNC2)c1ccc2[nH]ccc2c1 | > 99.5 µM
NCc1ccc(-c2csc3cc(C(=O)Nc4ccc5c(c4)CNC5)ccc23)cc1 | 31.6 µM
O=C(Nc1ccc2c(c1)CNC2)c1cc(F)c2[nH]ccc2c1 | > 99.5 µM
Cn1cc(CCc2nc3c(C(=O)Nc4ccc5c(c4)CNC5)cc(Cl)cc3[nH]2)cn1 | 23.7 µM

SMILES | IC50
O=C(Nc1ccc2c(c1)CNC2)c1cccc2[nH]c(=O)[nH]c12 | 40.8 µM
O=C(Nc1ccc2c(c1)CNC2)c1ccc2[nH]cc(C3CCNCC3)c2c1 | 29.2 µM
Cc1cccc(-c2nc3c(C(=O)Nc4ccc5c(c4)CNC5)cc(Cl)cc3[nH]2)c1O | 4.44 µM
O=C(NC1CCOCC1)[C@H](Nc1ccc2c(c1)CNC2)c1cc(Cl)cc(C2CC2)c1 | 53.4 µM
CNC(=O)[C@H](Nc1cc(CN)cc(-c2nn[nH]n2)c1)c1cc(Cl)cc(C2CC2)c1 | > 99.5 µM
NCc1ccc([C@H]2C[C@@H]2c2cc(Cl)cc(NC(=O)OCc3ccccc3)c2)cc1 | 6.85 µM
O=C(Nc1cc2c(c(C3=CCS(=O)(=O)CC3)c1)CNC2)c1cc(F)cc2[nH]ncc12 | 12.8 µM
Cc1c(C(=O)Nc2cc([C@H]3CCOC3)ccn2)cc(C2CC2)n1C | > 99.5 µM
NCCc1csc2cc(C(=O)Nc3ccc4c(c3)CNC4)ccc12 | > 99.5 µM
c1cc(C2CCN(Cc3c[nH]c4ccccc34)CC2)c2ccncc2c1 | > 99.5 µM
NCc1csc2cc(C(=O)Nc3ccc4c(c3)CNC4)ccc12 | 9.07 µM
C=CC[C@H]1NCc2cc(NC(=O)c3cc(Cl)cc4[nH]ncc34)ccc21 | 68.2 µM
O=C(Nc1ccc2c(c1)CNCC2)c1cc(Cl)cc2[nH]ncc12 | 93.9 µM
O=C(Nc1ccc2c(c1)CNC2)c1cc(F)cc2c1CCC2 | > 99.5 µM
O=C(Nc1cc(Cl)cc([C@H]2CN(Cc3ccccc3)C[C@@H]2c2cccc(-c3nn[nH]n3)c2)c1)OCc1ccccc1 | 6.03 µM
Cc1ccc(NC(=O)c2cc(Cl)cc(NC(=O)OCc3ccccc3)c2)cc1CN | 57.7 µM
COCCNC(=O)[C@H](Nc1ccc2c(c1)CNC2)c1cc(Cl)cc(C2CC2)c1 | 63.4 µM
CC(C)c1nnc(-c2nc3c(C(=O)Nc4ccc5c(c4)CNC5)cc(F)cc3[nH]2)s1 | 10.8 µM
Cc1cccc(-c2nc3c(C(=O)Nc4ccc5c(c4)CNC5)cc(F)cc3[nH]2)c1 | 6.16 µM
O=C1Cc2cc(C(=O)Nc3ccc4c(c3)CNC4)ccc2N1 | 7.13 µM and 5.44 µM
O=C(Nc1cc(Br)c2c(c1)CNC2)c1cc(F)cc2[nH]ncc12 | 15 µM
O=C(Nc1ccc2c(c1)CNC2)c1cccc2cn[nH]c12 | 37.3 µM
O=C(Nc1ccc2c(c1)CNC2)c1cc(Br)cc2[nH]c(=O)[nH]c12 | 21.5 µM
O=C(Nc1cc2c(cc1Br)CNC2)c1cc(F)cc2[nH]ncc12 | 21.8 µM
O=C(Nc1ccc2c(c1)CNC2)c1cc(Br)cc2ccccc12 | > 99.5 µM

SMILES | IC50
COc1cccc(-c2nc3c(C(=O)Nc4ccc5c(c4)CNC5)cc(F)cc3[nH]2)c1 | 3.72 µM
O=C(NCC(F)F)[C@H](Nc1ccc2c(c1)CNC2)c1cc(Cl)cc(C2CC2)c1 | 28.5 µM and > 99.5 µM and 23.8 µM
O=C(Nc1ccc2c(c1)CNC2)c1cc(Br)cc2[nH]c(-c3ccccc3)nc12 | 1.47 µM
O=C(Nc1cc(Cl)cc(C(=O)Nc2cccc([C@H]3C[C@H]3C(=O)O)c2)c1)OCc1ccccc1 | 22.6 µM
O=C(Nc1ccc2c(c1)CNC2)c1cc(Cl)cc2ccncc12 | 69.8 µM
O=C(Nc1ccc2c(c1)CNC2)c1cc(Cl)cc2nn(-c3ccccc3)nc12 | 4.73 µM
CC(C)CNC(=O)c1cc(Cl)ccc1NS(=O)(=O)c1ccc(Oc2ccccc2Cl)cc1 | 12.1 µM
O=C(Nc1cc(Cl)cc([C@H](C#CCO)Nc2cccc(-c3nn[nH]n3)c2)c1)OCc1ccccc1 | 11.9 µM
CNC(=O)[C@H](Nc1cccc(CN)c1)c1cc(Cl)cc(NC(=O)OCc2ccccc2)c1 | > 99.5 µM
N#Cc1cc2c(cc1NC(=O)c1cc(F)cc3[nH]ncc13)CNC2 | 5.39 µM
Cc1[nH]c2ccccc2c1CN1CCC(c2c[nH]c3ncccc23)CC1 | > 99.5 µM
O=C(Nc1ccc2c(c1)CNC2)c1cc(F)cc2[nH]c(-c3cccc(F)c3)nc12 | 2.73 µM
O=C(Nc1ccc2c(c1)CNC2)c1cc(F)cc2[nH]c(-c3ccccc3F)nc12 | 3.44 µM
C=CC[C@H](Nc1cc(Cl)cc(NC(=O)OCc2ccccc2)c1)c1cccc(-c2nn[nH]n2)c1 | 6.43 µM
O=C(NCC(F)F)[C@H](Nc1ccc2c(c1)CNC2)c1cc(F)cc2[nH]ccc12 | > 99.5 µM
N#C[C@H](Nc1cccc(-c2nn[nH]n2)c1)c1cc(Cl)cc(NC(=O)OCc2ccccc2)c1 | 9.59 µM
C=CC[C@H]1NCc2cc(N[C@H](C(=O)NC(C)C)c3cc(Cl)cc4[nH]ncc34)ccc21 | 55.1 µM
Clc1cc([C@@H]2C[C@H]2c2cccc(C3CCNCC3)c2)c2cn[nH]c2c1 | 6.45 µM
CNC(=O)[C@H](Nc1ccc2c(c1)CNC2)c1cc(Cl)cc(C2CC2)c1 | > 99.5 µM
CC(C)c1cc(Br)cc(C(=O)Nc2ccc3c(c2)CNC3)c1 | > 99.5 µM
O=C(Nc1ccc2c(c1)CNC2)c1cc(F)cc2[nH]ncc12 | 23.4 µM
N#Cc1ccc(-c2nc3c(C(=O)Nc4ccc5c(c4)CNC5)cc(F)cc3[nH]2)cc1 | 1.7 µM
O=C1Cc2c(cc(Br)cc2C(=O)Nc2ccc3c(c2)CNC3)N1 | 17.8 µM
Clc1cc(CNc2ccc3c(c2)CNC3)c2cn[nH]c2c1 | 42.2 µM
O=C(Nc1cc2c(c(C3=CCOCC3)c1)CNC2)c1cc(F)cc2[nH]ncc12 | 8.47 µM

SMILES | IC50
CNC(=O)[C@H](Nc1cc(Cl)cc(NC(=O)OCc2ccccc2)c1)c1cccc(-c2nn[nH]n2)c1 | 40.4 µM
O=C(Nc1ccc2c(c1)CNC2)c1cc(Cl)cc2c1CCC2 | > 99.5 µM
O=C(Nc1cc(Cl)cc([C@H]2C[C@@H]2c2cccc(C3CCNCC3)c2)c1)OCc1ccccc1 | 4.79 µM
N[C@H]1CC[C@H](c2ccc(NC(=O)c3cc(Cl)cc(NC(=O)OCc4ccccc4)c3)cc2)C1 | 5.84 µM
N#C[C@H](Nc1ccc2c(c1)CNC2)c1cc(Cl)cc(C2CC2)c1 | > 99.5 µM
CCc1cc(C(=O)Nc2cccc(-n3nn[nH]c3=O)c2)sc1-c1ccc(Cl)cc1 | 11.9 µM
O=C(Nc1ccc2c(c1)CNC2)c1cc(Cl)cc2cn[nH]c12 | 41.9 µM
CC(C)NC(=O)[C@H](Nc1ccc2c(c1)CNC2)c1cc(Cl)cc2[nH]c(-c3ccccc3)nc12 | 7.06 µM and 2.21 µM
C=CC[C@H]1NCc2cc(NC(=O)c3cccc4c3CC(=O)N4)ccc21 | > 99.5 µM
O=C(Nc1ccc2c(c1)CNC2)c1ccc2c(C3=CCNCC3)csc2c1 | 54.4 µM
O=C(Nc1cc(Cl)cc(C(=O)Nc2ccc3c(c2)CNC3)c1)OCc1ccccc1 | 72.5 µM
NCCc1csc2cc(C(=O)Nc3cc([C@H]4CCOC4)ccn3)ccc12 | > 99.5 µM
Clc1ccc2[nH]cc(Cc3ccc(-c4nn[nH]n4)cc3)c2c1 | 44.1 µM
C=CC[C@H]1NCc2cc(NC(=O)c3cc(F)cc4[nH]ncc34)ccc21 | 32.3 µM
O=C(Nc1ccc2c(c1)CNC2)c1cccc2[nH]c(C(F)(F)F)cc12 | 31.8 µM
O=C(Nc1cc(Cl)cc(C(=O)Nc2cccc(-n3nn[nH]c3=O)c2)c1)OCc1ccccc1 | 10.5 µM
O=C1Cc2c(cccc2C(=O)Nc2ccc3c(c2)CNC3)N1 | 14.2 µM
O=C1Cc2c(cc(F)cc2C(=O)Nc2ccc3c(c2)CNC3)N1 | 8.59 µM
Cc1nc2c(C(=O)Nc3ccc4c(c3)CNC4)cc(Cl)cc2[nH]1 | > 99.5 µM
N=C(N)NCCC[C@H](NC(=O)c1nccs1)C(=O)N[C@@H](CCCCN)C(=O)N[C@@H](C(N)=O)c1ccc(OCc2ccc(C(F)(F)F)cc2)cc1 | 2.22 µM (2×) and 2.34 µM and 1.63 µM and 2.19 µM and 2.45 µM and 1.49 µM
N#C[C@H](Nc1ccc2c(c1)CNC2)c1cc(Cl)cc2[nH]ncc12 | > 99.5 µM
NCc1cccc([C@H]2C[C@@H]2c2cc(Cl)cc(NC(=O)OCc3ccccc3)c2)c1 | 7.85 µM
CCOCCNC(=O)[C@H](Nc1ccc2c(c1)CNC2)c1cc(Cl)cc2[nH]ncc12 | > 99.5 µM
CC(C)NC(=O)[C@H](Nc1ccc2c(c1)CNC2)c1cc(Cl)cc2[nH]ncc12 | 26.2 µM
O=C(NCC(F)F)[C@H](Nc1ccc2c(c1)CNC2)c1cc(F)cc2[nH]ncc12 | 93.7 µM
